The nature of series [1]: Plasma stability in frozen monkey plasma. The series is classed as in vitro ADME. To be noted: 37° C., 10% CO2, read-out: T1/2 Monkey Plasma (converted). On the procedure:
(§1) Plasma stability of the compounds 1-19 (1 μM) was evaluated in frozen monkey and human plasma at 37° C. in a 10% CO2 environment. The stability of the analyte was assessed by determining the percentage of drug loss over the course of 0, 0.25, 0.5, 1, and 3 hr. In addition, the appearance of Compound A was determined for the same time course. Percent of drug loss as based on ratio with internal standard. Analyte concentrations were measured by LC/MS/MS. Linear regression was performed with log transformed percent of average TO values and linear time values. The elimination rate constant (ke) was calculated from the slope of this regression line and the half-life (T1/2) calculated based on the elimination rate constant.

The nature of series [2]: Aqueous solubility (slurry in pH 7 buffer, UPLC). The series is classed as physicochemical. Particulars: pH 7.0 phosphate buffer, amorphous material; for solubility: aqueous buffer, thermodynamic from solid, read-out: Aqu. Solubility. On the procedure:
Aqueous solubility of the compounds was measured by suspending, sonicating (30 minutes), and slurrying (2 hours, 1000 rpm) excess solid (typically 5-10 mg) in phosphate buffered saline at pH 7, or equivalent pH 7 buffer. The suspension was then sonicated again for 30 minutes and stirred again at 1000 rpm for at least 6-24 hours. Approximately 400 μL of sample was removed and placed into spin filters. Each sample was spun at 14K rpm for 10 minutes using a 0.45 μm PVDF spin filter. A portion of the filtrate was removed and diluted with 1:1 ACN:H2O. The resultant samples were analyzed using UPLC analysis. Retains of the solids were checked by XRPD to determine if the material was crystalline or amorphous. Solubility of Compound A was measured at 140 μg/mL at pH 7.4 in PBS buffer solution.

The nature of series [3]: Plasma stability in frozen human plasma. Particulars: 37° C., 10% CO2, read-out: T1/2 Human Plasma (converted). The series is classed as in vitro ADME. Here is the method:
as §1

The record followed here is patent publication US12215101B2, “Pro drugs of PDE10 compounds” (Merck Sharp & Dohme LLC, priority 2021, dated 2025).

Broadly, the solubility is the dissolved amount per volume that the medium holds.

Each structure is given as a SMILES string. In brackets after ≈: the same amount, converted by molar mass.

With `Cc1ccc([C@H]2C[C@@H]2COc2cc(N(Cc3nnc(C)s3)C(=O)OCc3oc(=O)oc3C)nc(C)n2)nc1` [Compound 1, (5-Methyl-2-oxo-1,3-dioxol-4-yl)methyl ((5-methyl-1,3,4-thiadiazol-2-yl)methyl)(2-methyl-6-(((1S,2S)-2-(5-methylpyridin-2-yl)cyclopropyl)methoxy)pyrimidin-4-yl)carbamate], the half-life at 1 μM in series [1] is 6.6 min; in series [3], 3.6 min. Besides, in series [2], the solubility amounted to 2.3 µg/mL (≈ 4.27 µM).

Consider `Cc1ccc([C@H]2C[C@@H]2COc2cc(N(Cc3nnc(C)s3)Sc3ccccc3)nc(C)n2)nc1` [Compound 2, N-((5-Methyl-1,3,4-thiadiazol-2-yl)methyl)-N-(2-methyl-6-(((1S,2S)-2-(5-methylpyridin-2-yl)cyclopropyl)methoxy)pyrimidin-4-yl)-S-phenylthiohydroxylamine], for which the half-life at 1 μM in series [1] was 4.8 min; in series [3], 17.4 min. The “Aqu. Solubility” value in series [2] was “BLQ”.

`Cc1ccc([C@H]2C[C@@H]2COc2cc(N(Cc3nnc(C)s3)C(=O)c3ccccc3)nc(C)n2)nc1` [Compound 3, N-((5-Methyl-1,3,4-thiadiazol-2-yl)methyl)-N-(2-methyl-6-(((1S,2S)-2-(5-methylpyridin-2-yl)cyclopropyl)methoxy)pyrimidin-4-yl)benzamide]: the half-life at 1 μM in series [1] was 69 min; in series [3], 182 min. For the same molecule, the solubility in series [2] was 19 µg/mL (≈ 39 µM).

Take `CCCCCOC(=O)N(Cc1nnc(C)s1)c1cc(OC[C@H]2C[C@@H]2c2ccc(C)cn2)nc(C)n1` [Compound 4, Pentyl ((5-methyl-1,3,4-thiadiazol-2-yl)methyl)(2-methyl-6-(((1S,2S)-2-(5-methylpyridin-2-yl)cyclopropyl)methoxy)pyrimidin-4-yl)carbamate]: the results for the half-life at 1 μM in series [1] and in series [3] were 104 min and 412 min, respectively. Besides, the solubility in series [2] turned out to be 0.008 µg/mL (≈ 0.0161 µM).

As for `Cc1ccc([C@H]2C[C@@H]2COc2cc(N(Cc3nnc(C)s3)C(=O)OCOC(=O)c3ccccc3)nc(C)n2)nc1` [Compound 5, ((((5-Methyl-1,3,4-thiadiazol-2-yl)methyl)(2-methyl-6-(((1S,2S)-2-(5-methylpyridin-2-yl)cyclopropyl)methoxy)pyrimidin-4-yl)carbamoyl)oxy)methyl benzoate], the half-life at 1 μM in series [1] is 78.6 min; in series [3], 104 min. Besides, the solubility in series [2] is 0.02 µg/mL (≈ 0.0357 µM).

For `CCCCCC(=O)OCOC(=O)N(Cc1nnc(C)s1)c1cc(OC[C@H]2C[C@@H]2c2ccc(C)cn2)nc(C)n1` [Compound 6, ({(2-Methyl-6-{[(1S,2S)-2-(5-methylpyridin-2-yl)cyclopropyl]methoxylpyrimidin-4-yl)[(5-methyl-1,3,4-thiadiazol-2-yl)methyl]carbamoyl}oxy)methyl hexanoate], the half-life at 1 μM in series [1] was 14.4 min; in series [3] it was 21 min. Besides, the solubility in series [2] came out at 0.02 µg/mL (≈ 0.0361 µM).

On to `CCC(=O)OCOC(=O)N(Cc1nnc(C)s1)c1cc(OC[C@H]2C[C@@H]2c2ccc(C)cn2)nc(C)n1` [Compound 7, ({(2-Methvl-6-{[(1S,2S)-2-(5-methylpyridin-2-yl)cyclopropyl]methoxy}pyrimidin-4-yl)[(5-methyl-1,3,4-thiadiazol-2-yl)methyl|carbamoyl}oxy)methyl propanoate], for which the half-life at 1 μM in series [1] is 5.4 min; in series [3], 4.8 min. In addition, the solubility in series [2] was found to be 15 µg/mL (≈ 29.3 µM).

Turning to `Cc1ccc([C@H]2C[C@@H]2COc2cc(N(Cc3nnc(C)s3)C(=O)OCOC(=O)c3ccncc3)nc(C)n2)nc1` [Compound 8, ({(2-Methyl-6-{[(1S,2S)-2-(5-methylpyridin-2-yl)cyclopropyl]methoxy}pyrimidin-4-yl)[(5-methyl-1,3,4-thiadiazol-2-yl)methyl]carbamoyl}oxy)methyl pyridine-4-carboxylate], the half-life at 1 μM is 9.6 min in series [1] and 11.4 min in series [3]. The solubility in series [2] amounted to 0.139 µg/mL (≈ 0.247 µM).

In the case of `Cc1ccc([C@H]2C[C@@H]2COc2cc(N(Cc3nnc(C)s3)C(=O)OCOC(=O)c3ccccn3)nc(C)n2)nc1` [Compound 9, ({(2-Methyl-6-{[(1S,2S)-2-(5-methylpyridin-2-yl)cyclopropyl]methoxy}pyrimidin-4-yl)[(5-methyl-1,3.4-thiadiazol-2-yl)methyl]carbamoyl}oxy)methyl pyridine-2-carboxylate], the half-life at 1 μM is 6 min in series [1] and 7.2 min in series [3]. For the same molecule, in series [2], the solubility was 0.058 µg/mL (≈ 0.103 µM).

Take `Cc1ccc([C@H]2C[C@@H]2COc2cc(N(Cc3nnc(C)s3)C(=O)OCOC(=O)c3cccnc3)nc(C)n2)nc1` [Compound 10, ({(2-Methyl-6-{[(1S,2S)-2-(5-methylpyridin-2-ylcyclopropyl]methoxy}pyrimidin-4-yl)|(5-methyl-1,3,4-thiadiadol-2-yl)methyl]carbamoyl}oxy)methyl pyridine-3-carboxylate]: the half-life at 1 μM in series [1] was 30.6 min; in series [3] it was 55.8 min. The solubility in series [2] worked out at 0.05 µg/mL (≈ 0.089 µM).

`Cc1ccc([C@H]2C[C@@H]2COc2cc(N(Cc3nnc(C)s3)C(=O)OCOC(=O)c3ccc(F)cc3)nc(C)n2)nc1` [Compound 11, ({(2-Methyl-6-{[(1S,2S)-2-(5-methylpyridin-2-yl)cyclopropyl]methoxy}pyrimidin-4-yl)[(5-methyl-1,3,4-thiadiazol-2-yl)methyl]carbamoyl}oxy)methyl 4-fluorobenzoate]: the half-life at 1 μM in series [1] is 43.2 min; in series [3] it was 64.8 min. For the same molecule, the solubility in series [2] turned out to be 0.07 µg/mL (≈ 0.121 µM).

For `Cc1ccc([C@H]2C[C@@H]2COc2cc(N(Cc3nnc(C)s3)C(=O)OCOC(=O)c3ccccc3F)nc(C)n2)nc1` [Compound 13, ({(2-Methyl-6-{[(1S,2S)-2-(5-methylpyridin-2-yl)cyclopropyl]methoxy}pyrimidin-4-yl)[(5-methyl-1,3,4-thiadiazol-2-yl)methyl]carbamoyl}oxy)methyl 2-fluorobenzoate], the half-life at 1 μM in series [1] is 16.8 min; in series [3], 27 min. The solubility in series [2] came to 0.08 µg/mL (≈ 0.138 µM).

As for `COc1ccccc1C(=O)OCOC(=O)N(Cc1nnc(C)s1)c1cc(OC[C@H]2C[C@@H]2c2ccc(C)cn2)nc(C)n1` [Compound 14, ({(2-Methyl-6-{[(1S,2S)-2-(5-methylpyridin-2-yl)cyclopropyl]methoxy}pyrimidin-4-yl)[(5-methyl-1,3,4-thiadiazol-2-yl)methyl]carbamoyl}oxy)methyl 2-methoxybenzoate], the half-life at 1 μM is 54 min in series [1] and 126 min in series [3]. Also, the solubility in series [2] is 0.02 µg/mL (≈ 0.0339 µM).

On to `COc1cccc(C(=O)OCOC(=O)N(Cc2nnc(C)s2)c2cc(OC[C@H]3C[C@@H]3c3ccc(C)cn3)nc(C)n2)c1` [Compound 15, ({(2-Methyl-6-{[(1S,2S)-2-(5-methylpyridin-2-yl)cyclopropyl]methoxy}pyrimidin-4-yl)[(5-methyl-1,3,4-thiadiazol-2-yl)methyl]carbamoyl}oxy)methyl 3-methoxybenzoate], for which the figures for the half-life at 1 μM in series [1] and in series [3] were 67.2 min and 198 min, respectively. In addition, the solubility in series [2] was determined as 0.12 µg/mL (≈ 0.203 µM).

In the case of `COc1ccc(C(=O)OCOC(=O)N(Cc2nnc(C)s2)c2cc(OC[C@H]3C[C@@H]3c3ccc(C)cn3)nc(C)n2)cc1` [Compound 16, ({(2-Methyl-6-{[(1S,2S)-2-(5-methylpyridin-2-yl)cyclopropyl]methoxy}pyrimidin-4-yl)[(5-methyl-1,3,4-thiadiazol-2-yl)methyl]carbamoyl}oxy)methyl 4-methoxybenzoate], the half-life at 1 μM in series [1] was 100 min; in series [3] it was 227 min. In addition, the solubility in series [2] was 0.16 µg/mL (≈ 0.271 µM).

As for `Cc1ccc([C@H]2C[C@@H]2COc2cc(N(Cc3nnc(C)s3)C(=O)OCOC(=O)C(C)C)nc(C)n2)nc1` [Compound 17], the figures for the half-life at 1 μM in series [1] and in series [3] were 7.2 min and 7.8 min, respectively. In addition, the solubility in series [2] stood at 0.16 µg/mL (≈ 0.304 µM).

For the molecule `Cc1ccc([C@H]2C[C@@H]2COc2cc(N(Cc3nnc(C)s3)C(=O)OCOC(=O)C3CCCCC3)nc(C)n2)nc1` [Compound 18, ({(2-Methyl-6-{[(1S,2S)-2-(5-methylpyridin-2-yl)cyclopropyl]methoxy}pyrimidin-4-yl)[(5-methyl-1,3,4-thiadiazol-2-yl)methyl]carbamoyl}oxy)methyl cyclohexanecarboxylate], the half-life at 1 μM in series [1] was 16.8 min; in series [3], 21 min. Also, the solubility in series [2] was determined as 0.07 µg/mL (≈ 0.124 µM).

As to `CCC(CC)C(=O)OCOC(=O)N(Cc1nnc(C)s1)c1cc(OC[C@H]2C[C@@H]2c2ccc(C)cn2)nc(C)n1` [Compound 19, ({(2-Methyl-6-{[(1S,2S)-2-(5-methylpyridin-2-yl)cyclopropyl]methoxy}pyrimidin-4-yl)[(5-methyl-1,3,4-thiadiazol-2-yl)methyl]carbamoyl}oxy)methyl 2-ethylbutanoate], the half-life at 1 μM in series [1] is 35.4 min; in series [3] it was 148 min. Moreover, in series [2], the solubility was 0.03 µg/mL (≈ 0.0541 µM).
